# Results reported in ChEMBL document CHEMBL1157141, “Prediction of intestinal absorption and metabolism of pharmacologically active flavones and flavanones” (Bioorg Med Chem, 2008).
# Key:
# [1] = Apparent permeability from basolateral to apical side in human Caco-2 cells assessed as drug recovery; format: ADME, cell-based; conditions: read-out: Activity
# [2] = Apparent permeability from apical to basolateral side in human Caco-2 cells assessed as drug recovery; format: ADME, cell-based; conditions: read-out: Activity
# [3] = Stability in hank's balanced salt solution at 15 uM after 20 mins; format: physicochemical; conditions: read-out: Stability
# [4] = Stability in hank's balanced salt solution at 15 uM after 180 mins; format: physicochemical; conditions: read-out: Stability
# [5] = Stability in hank's balanced salt solution at 15 uM after 24 hrs; format: physicochemical; conditions: read-out: Stability
# [6] = Stability in hank's balanced salt solution at 15 uM after 120 mins; format: physicochemical; conditions: read-out: Stability
# [7] = Apparent permeability from basolateral to apical side in human Caco-2 cells; format: ADME, cell-based; conditions: read-out: permeability
# [8] = Apparent permeability from apical to basolateral side in human Caco-2 cells; format: ADME, cell-based; conditions: read-out: permeability
# [9] = Apparent permeability across PAMPA membrane assessed as drug recovery; format: ADME; conditions: read-out: Activity
# [10] = Apparent permeability across PAMPA membrane; format: ADME; conditions: read-out: permeability
# [11] = Stability in hank's balanced salt solution at 15 uM after 60 mins; format: physicochemical; conditions: read-out: Stability
# [12] = Ratio of permeability from basolateral to apical side over apical to basolateral side in human Caco-2 cells; format: ADME, cell-based
Structure (SMILES),recovery [1],recovery [2],"remaining at 20 min, 15 µM [3]","remaining at 3 h, 15 µM [4]","remaining at 24 h, 15 µM [5]","remaining at 2 h, 15 µM [6]",Papp B→A [7],Papp A→B [8],recovery [9],Papp [10],"remaining at 1 h, 15 µM [11]",efflux ratio [12]
COc1ccc([C@@H]2CC(=O)c3c(O)cc(O[C@@H]4O[C@H](CO[C@@H]5O[C@@H](C)[C@H](O)[C@@H](O)[C@H]5O)[C@@H](O)[C@H](O)[C@H]4O)cc3O2)cc1O [HESPERIDIN],80.2%,76.9%,99.8%,86.3%,84.9%,87.9%,,,,,,
O=C1C[C@@H](c2ccc(O)cc2)Oc2cc(O)cc(O)c21 [NARINGENIN],93%,54.4%,,91.2%,79.9%,100%,51.4 ×10⁻⁶ cm/s,37.8 ×10⁻⁶ cm/s,87%,25.7 ×10⁻⁶ cm/s,99.4%,
COc1ccc(-c2cc(=O)c3c(O)cc(O)cc3o2)cc1O [DIOSMETIN],66.8%,59.1%,100%,98.4%,50.9%,101%,12.4 ×10⁻⁶ cm/s,76.2 ×10⁻⁶ cm/s,82%,76.1 ×10⁻⁶ cm/s,96.5%,0.2
C[C@@H]1O[C@@H](O[C@H]2[C@H](Oc3cc(O)c4c(c3)O[C@H](c3ccc(O)cc3)CC4=O)O[C@H](CO)[C@@H](O)[C@@H]2O)[C@H](O)[C@H](O)[C@H]1O [NARINGIN],88.4%,85.7%,98.3%,90.4%,88.5%,92.2%,,,,,,
COc1ccc(-c2cc(=O)c3c(O)cc(O[C@@H]4O[C@H](CO[C@@H]5O[C@@H](C)[C@H](O)[C@@H](O)[C@H]5O)[C@@H](O)[C@H](O)[C@H]4O)cc3o2)cc1O [DIOSMIN],68.9%,61.9%,103%,78.4%,0%,88.6%,,,,,,
COc1ccc([C@@H]2CC(=O)c3c(O)cc(O)cc3O2)cc1O [HESPERETIN],70.1%,34.1%,94.5%,90.8%,80%,91.1%,27 ×10⁻⁶ cm/s,47.1 ×10⁻⁶ cm/s,84%,35.7 ×10⁻⁶ cm/s,99.9%,0.6
